Assay results reported in US20240376153A1, “CNP CYCLIC PEPTIDE, AND MEDICINE, EXTERNAL PREPARATION AND COSMETIC EACH CONTAINING SAID CYCLIC PEPTIDE” (Igisu Co., Ltd., priority 2015, published 2024).
Entries after “also recorded” stand apart in the source; their conditions may differ. Positions of bridges follow the written chain, without caps; N, C: chain ends. Residues, ends and D or L forms follow the SMILES beside them. No end group written: not given here.

How the values were obtained:
[1] = tested on: nasal cavity, the affected site; assay: Effect on nose of cyclic peptides in which amino acid was substituted; conditions: Formulation C = 30 μg/ml, nasal application once/day
Experimental: The obtained cyclic peptide was combined with purified water at 1, 5, 30, 100, 500 μg/ml and applied to the affected site. Formulations A to E in the tables refers to the cyclic peptide of 1, 5, 30, 100, 500 μg/ml, respectively.

affected site of skin = assay: Effect on skin of cyclic peptides in which amino acid was substituted; format: in vivo, human
Experimental: Formulations A to E refers to cyclic peptide concentration of 1, 5, 30, 100, 500 μg/ml, respectively.

[2] = rough skin, Formulation C (30 μg/ml)
[3] = atopic dermatitis, Formulation B (5 μg/ml in purified water) applied to affected site
[4] = atopic dermatitis, Formulation C (30 μg/ml in purified water) applied to affected site
[5] = rough skin, Formulation A (1 μg/ml)
[6] = psoriasis vulgaris, Formulation C (30 μg/ml)

In the case of CC[C@H](C)[C@@H]1NC(=O)[C@H](CCCNC(=N)N)NC(=O)[C@H](CC(=O)O)NC(=O)[C@H](CCSC)NC(=O)[C@H](CCCCN)NC(=O)[C@H](CC(C)C)NC(=O)[C@H](C)NC(=O)[C@H](Cc2ccccc2)NC(=O)[C@@H](N)CSSC[C@@H](C(=O)O)NC(=O)CNC(=O)[C@H](CC(C)C)NC(=O)CNC(=O)[C@H](CO)NC(=O)[C@H](CCSC)NC(=O)[C@H](CO)NC(=O)CNC1=O [SEQ ID NO. 32] (H-CFALKMDRIGSMSGLGC-OH; disulfide 1-17; N-terminus and C-terminus assumed), the “irritation upon nasal application” value [1] is reported as “There was no irritation upon nasal application”.
CC[C@H](C)[C@@H]1NC(=O)[C@H](CCCNC(=N)N)NC(=O)[C@H](CC(=O)O)NC(=O)[C@H](CC(C)C)NC(=O)[C@H](CCCCN)NC(=O)[C@H](CC(C)C)NC(=O)CNC(=O)[C@H](Cc2ccccc2)NC(=O)[C@@H](N)CSSC[C@@H](C(=O)O)NC(=O)CNC(=O)[C@H](CC(C)C)NC(=O)CNC(=O)[C@H](CO)NC(=O)[C@H](CCSC)NC(=O)[C@H]([C@@H](C)O)NC(=O)CNC1=O [SEQ ID NO: 10] (H-CFGLKLDRIGTMSGLGC-OH; disulfide 1-17; N-terminus and C-terminus assumed) was tested, and the “irritation upon nasal application” value [1] was “There was no irritation upon nasal application”.
With CC[C@H](C)[C@@H]1NC(=O)[C@H](CCCNC(=N)N)NC(=O)[C@H](CC(=O)O)NC(=O)[C@H](CC(C)C)NC(=O)[C@H](CCCCN)NC(=O)[C@H](CC(C)C)NC(=O)CNC(=O)[C@H](Cc2ccccc2)NC(=O)[C@@H](N)CSSC[C@@H](C(=O)O)NC(=O)CNC(=O)[C@H](CC(C)C)NC(=O)CNC(=O)[C@H](CO)NC(=O)[C@H](CCSC)NC(=O)[C@H](C)NC(=O)CNC1=O [SEQ ID NO: 11] (H-CFGLKLDRIGAMSGLGC-OH; disulfide 1-17; N-terminus and C-terminus assumed) the “irritation upon nasal application” value [1] was “There was no irritation upon nasal application”.
In the case of CC[C@H](C)[C@@H]1NC(=O)[C@H](CCCNC(=N)N)NC(=O)[C@H](CC(=O)O)NC(=O)[C@H](CC(C)C)NC(=O)[C@H](CCCCN)NC(=O)[C@H](CC(C)C)NC(=O)CNC(=O)[C@H](Cc2ccccc2)NC(=O)[C@@H](N)CSSC[C@@H](C(=O)O)NC(=O)CNC(=O)[C@H](CC(C)C)NC(=O)CNC(=O)[C@H](C)NC(=O)[C@H](CCSC)NC(=O)[C@H](CO)NC(=O)CNC1=O [SEQ ID NO: 16] (H-CFGLKLDRIGSMAGLGC-OH; disulfide 1-17; N-terminus and C-terminus assumed), the “irritation upon nasal application” value [1] is reported as “clear. There was no irritation upon nasal application”.
In the case of CC[C@H](C)[C@@H]1NC(=O)[C@H](CCCNC(=N)N)NC(=O)[C@H](CC(=O)O)NC(=O)[C@H](CC(C)C)NC(=O)[C@H](CCCCN)NC(=O)[C@H](CC(C)C)NC(=O)CNC(=O)[C@H](Cc2ccccc2)NC(=O)[C@@H](N)CSSC[C@@H](C(=O)O)NC(=O)CNC(=O)[C@H](C(C)C)NC(=O)CNC(=O)[C@H](CO)NC(=O)[C@H](CCSC)NC(=O)[C@H](CO)NC(=O)CNC1=O [SEQ ID NO: 18] (H-CFGLKLDRIGSMSGVGC-OH; disulfide 1-17; N-terminus and C-terminus assumed), the “irritation upon nasal application” value [1] is reported as “There was no irritation upon nasal application”.
“SEQ ID NO: 6: cyclic peptide in which one amino acid has been substituted (CFALKLDRIGSMSGLGC; disulfide 1-17)” was tested, and the “Post-treatment diagnostic skin impression” value (affected site of skin; eczema, large winkles, Formulation B (5 μg/ml)) was “Immediately after application, itches were eliminated” and the “Post-treatment diagnostic skin impression” value (affected site of skin; [2]) was “texture was improved. After 2 min, wrinkles were shallowed,; also recorded: skin was full and given resilience; also recorded: Immediately after application, itches were eliminated, skin”.
“SEQ ID NO: 8: cyclic peptide in which one amino acid has been substituted (CFGLKMDRIGSMSGLGC; disulfide 1-17)” was tested, and the “Post-treatment diagnostic skin impression” value (affected site of skin; atopic dermatitis, Formulation A (1 μg/ml), two-sided application (right vs left) in the same subject) was “After 1 min, erythema, infiltration, itches were remitted; also recorded: After 2 min, stining feeling was eliminated; also recorded: Immediately after application, itches were eliminated; also recorded: improved, skin texture was improved and moistened”, the “Post-treatment diagnostic skin impression” value (affected site of skin; [3]) was “Immediately after application, itches were eliminated,; also recorded: erythema and scales were remitted” and the “Post-treatment diagnostic skin impression” value (affected site of skin; [4]) was “the day next, erythema was remarkably improved; also recorded: After stopping 3 days of application, the effects lasted”. For the same molecule, the “Post-treatment diagnostic skin impression” value (affected site of skin; [5]) was “Immediately after application itches were eliminated; also recorded: After 3 min, skin texture was improved finely, pore” and the “Post-treatment diagnostic skin impression” value (affected site of skin; seborrheic dermatitis, acne (comedo), Formulation C (30 μg/ml)) was “After 1 min, itches were eliminated; also recorded: opening became inconspicuous, acne (comedo) was reduced”.
For “SEQ ID NO: 12: cyclic peptide in which one amino acid has been substituted (CFGLKLDRIGVMSGLGC; disulfide 1-17)”, the “Post-treatment diagnostic skin impression” value (affected site of skin; [2]) was “improved”.
With “SEQ ID NO: 14: cyclic peptide in which one amino acid has been substituted (CFGLKLDRIGLMSGLGC; disulfide 1-17)” the “Post-treatment diagnostic skin impression” value (affected site of skin; [3]) was “After 1 min, itches, scales, erythema” and the “Post-treatment diagnostic skin impression” value (affected site of skin; [6]) was “After 3 min, scales, crusts and infiltration were remitted”.
With “SEQ ID NO: 15: cyclic peptide in which one amino acid has been substituted (CFGLKLDRIGSMTGLGC; disulfide 1-17)” the “Post-treatment diagnostic skin impression” value (affected site of skin; psoriasis vulgaris, Formulation B (5 μg/ml)) was “remarkably remitted, crusts were eliminated”, the “Post-treatment diagnostic skin impression” value (affected site of skin; psoriasis, Formulation B (5 μg/ml)) was “After 3 min, scales were remitted. 3 min after further; also recorded: reduced” and the “Post-treatment diagnostic skin impression” value (affected site of skin; rough skin, wrinkles, Formulation A (1 μg/ml)) was “kept moistened, facial erythema and scales were normalized”. The “Post-treatment diagnostic skin impression” value (affected site of skin; seborrheic dermatitis, Formulation C (30 μg/ml)) was “Immediately after application, itches were remitted”.
For “SEQ ID NO: 17: cyclic peptide in which one amino acid has been substituted (CFGLKLDRIGSMSGAGC; disulfide 1-17)”, the “Post-treatment diagnostic skin impression” value (affected site of skin; [4]) was “Immediately after application, itches were eliminated; also recorded: remitted”.
With “SEQ ID NO: 32 (CFALKMDRIGSMSGLGC; disulfide 1-17)” the “Post-treatment diagnostic skin impression” value (affected site of skin; [6]) was “remitted. After 10 min, erythema was further remitted” and the “Post-treatment diagnostic skin impression” value (affected site of skin; rough skin, acne (comedo), Formulation C (30 μg/ml)) was “Immediately after application, itches were eliminated; also recorded: (comedo) was reduced”.
“SEQ ID NO: 35: cyclic peptide in which two amino acids have been substituted (CFALKLDRIGSMSGIGC; disulfide 1-17)” was tested, and the “Post-treatment diagnostic skin impression” value (affected site of skin; [3]) was “Immediately after application, itches were eliminated,; also recorded: erythema ard scales were remarkably improved” and the “Post-treatment diagnostic skin impression” value (affected site of skin; [4]) was “After 1 min, itches were eliminated; also recorded: After 2 min, scales and erythema were remarkably improved; also recorded: After 3 min, skin was almost normalized and moisturized”.
With “SEQ ID NO: 37: cyclic peptide in which two amino acids have been substituted (CFGLKMDRIGSMTGLGC; disulfide 1-17)” the “Post-treatment diagnostic skin impression” value (affected site of skin; atopic dermatitis, Formulation A (1 μg/ml in purified water) applied to affected site) was “After 2 min, itches were eliminated” and the “Post-treatment diagnostic skin impression” value (affected site of skin; [4]) was “Immediately after application, itches were remitted,; also recorded: erythema, infiltration and scales were remarkably improved”.
In the case of “SEQ ID NO: 38: cyclic peptide in which two amino acids have been substituted (CFGLKMDRIGSMSGIGC; disulfide 1-17)”, the “Post-treatment diagnostic skin impression” value (affected site of skin; [4]) is reported as “After 1 min, itches were eliminated; also recorded: improved. After 3 min, skin was almost normalized and; also recorded: moisturized”, the “Post-treatment diagnostic skin impression” value (affected site of skin; contact dermatitis, Formulation C (30 μg/ml)) is reported as “After 1 min, itches was remitted; also recorded: After 3 min, swelling lessened, erythema was remitted” and the “Post-treatment diagnostic skin impression” value (affected site of skin; [6]) is reported as “After 3 min, scales and infiltration were remitted”. The “Post-treatment diagnostic skin impression” value (affected site of skin; rough skin, contact dermatitis, Formulation A (1 μg/ml), two-sided application (right vs left)) was “After 2 min, rought desiccation and erythema was remitted,; also recorded: skin texture was improved and moisturized”, the “Post-treatment diagnostic skin impression” value (affected site of skin; rough skin, wrinkles, Formulation B (5 μg/ml)) was “shallowed, skin was full and given resilience” and the “Post-treatment diagnostic skin impression” value (affected site of skin; [5]) was “kept moistened”.
With “SEQ ID NO: 49: cyclic peptide in which three amino acids have been substituted (CFALKMDRIGSMTGLGC; disulfide 1-17)” the “Post-treatment diagnostic skin impression” value (affected site of skin; psoriasis vulgaris, Formulation A (1 μg/ml)) was “erythema were remitted”.
In the case of “SEQ ID NO: 51: cyclic peptide in which three amino acids have been substituted (CFGLKMDRIGTMTGLGC; disulfide 1-17)”, the “Post-treatment diagnostic skin impression” value (affected site of skin; [4]) is reported as “Immediately after application, itches were eliminated; also recorded: scratch scars were remitted” and the “Post-treatment diagnostic skin impression” value (affected site of skin; eczema, Formulation B (5 μg/ml)) is reported as “Immediately after application, itches were eliminated; also recorded: After 3 min, erythema and infiltration were remitted”.
